Data taken from US20230381774A1, “MICROFLUDIC LAB-ON-CHIP DEVICE, MATRIX, SMALL MOLECULES AND THREE-DIMENSIONAL SPHEROIDS FOR CELL REPROGRAMMING” (The Regents of the University of California, priority 2022, published 2023).
Entries after “also recorded” stand apart in the source; their conditions may differ. Each block holds one compound with its values, some of them ahead of it.

Experiments:
Assay type in all cases: cell-based, mouse
[1] = test system: BAM-transduced fibroblasts; experiment: iN reprogramming of BAM-transduced fibroblasts with cytoskeletal and adhesion inhibitors (TUBB3+ iN cells, 2 weeks); conditions: for dose response of reprogramming efficiency: varying concentrations
Method: To examine whether these changes in cell stiffness, actin structure and expression of contractility-mediating genes were involved in iN reprogramming, we evaluated the effects of disrupting the cytoskeleton using small molecule inhibitors. For these experiments, BAM-transduced fibroblasts were reprogrammed as in FIG. 1A and chemical compounds known to perturb the cytoskeleton were added to the culture medium on day 1 to evaluate their effects on the reprogramming process. […] The reprogramming efficiency was determined as the percentage of TUBB3*-iN cells normalized to the number of cells plated at 24 hours post-seeding (i.e., day 0). First, we tested whether disruption of cytoskeletal contractility could influence the direct reprogramming of fibroblasts into neurons using blebbistatin, a non-muscle myosin II inhibitor^22-24. We observed that iN cells could be derived in the absence and presence of blebbistatin (FIG. 3A). […] In particular, treatment with 10 μM blebbistatin generated the highest number of iN cells and increased the reprogramming efficiency by approximately 4.5-fold compared to the control, therefore, this concentration was used in all subsequent experiments. […] As Ascl1 has been identified as a pioneer factor for iN reprogramming and transduction of Ascl1 alone is sufficient to generate iN cells^25,26, we further investigated whether blebbistatin could influence iN conversion by Ascl1 induction.
(§1) After transduction, mouse fibroblasts were seeded onto multi-well tissue culture-treated polystyrene dishes (Falcon) coated with laminin (0.1 mg/ml, Corning) at 4,000 cells per cm^2. Twenty-four hours after seeding, the medium was replaced to MEF medium containing doxycycline (2 μg/ml, Sigma). The following day (i.e., day 1) the medium was changed to N3 medium (DMEM/F12 [GIBCO]+N2 supplement [Invitrogen]+B27 supplement [Invitrogen]+1% penicillin/streptomycin [Gibco]+ doxycycline [2 μg/ml, Sigma]) and the cultures were maintained in this medium for the duration of the experiments. For Ascl1-only reprogramming, N3 medium was further supplemented with BDNF (5 ng/ml, R&D systems) and GDNF (5 ng/ml, R&D systems) after day 7. For cytoskeletal and cell adhesion disruptions, Blebbistatin (Millipore), Y-27632 (20 μM; Cayman Chemical), Nocodazole (0.3 μM; Sigma), Cytochalasin D (1 μM; Sigma), Jasplakinolide (0.05 μM; Cayman Chemical) and PF573228 (Sigma) were administered in N3 medium on day 1 and for the first 7 days of reprogramming (unless stated otherwise) and used at the indicated concentrations. Culture medium was replenished every 2 days during reprogramming to maintain the activity of the small molecules. After culturing for the desired length (14 days for BAM and 21 days for Ascl1 only), the induced neuronal (iN) cells were analyzed and the reprogramming efficiency was determined.
The reprogramming efficiency was determined by as the percentage of TUBB3^+ iN cells in each condition normalized to the number of cells plated at 24 hours post-seeding. Epifluorescence images were collected using a Zeiss Axio Observer.D1, Zeiss Axio Observer.Z1, and ImageXpress Micro XLS System (Molecular Devices), whereas confocal images were acquired using a Zeiss LSM710 microscope and Leica SP8 Confocal Laser Scanning microscope.

[2] = test system: histone deacetylase (HDAC); experiment: HDAC activity assay on nuclear extracts of treated fibroblasts; conditions: 10 μM blebbistatin or 5 μM PF573228, 2 hours, vs DMSO
Method: Nuclear protein extractions were isolated from 5×10^5 fibroblasts treated with vehicle control (DMSO), 10 μM blebbistatin or 5 μM PF573228 for 2 hours using a nuclear extraction kit (EpiGentek, OP-0002), in accordance with the manufacturer's instructions. HAT, HDAC, H3K4 HMT, H3K4 HDM and DNMT activity were measured using the HAT activity/inhibition assay (EpiGentek, P-4003-048), HDAC activity/inhibition assay (EpiGentek, P-4034-096), Histone methyltransferase (H3K4 specific) activity/inhibition assay (EpiGentek, P-3002-1), Histone Demethylase (H3K4 specific) activity/inhibition assay (EpiGentek, P-3074-48), and DNMT activity/inhibition assay (EpiGentek, P-3009-048), respectively. Per the manufacturer's instructions, 20 μg of nuclear extract was added into the assay wells and incubated at 37° C. for 90 minutes. After adding the color developer solution, the absorbance was measured using a plate reader (Infinite […], 30050303) at 450 nm for all the assays with the exception of the Histone Demethylase (H3K4 specific) activity/inhibition assay where we measured the fluorescence using a fluorescence microplate reader at 530 EX/590 EM nm.

[3] = test system: promoter or enhancer regions of neuronal and mesenchymal genes; experiment: ATAC-seq chromatin accessibility; conditions: 10 μM blebbistatin or 5 μM PF573228, 2 hours
Method: A total of 1,000,000 fibroblasts treated with vehicle control (DMSO), 10 μM blebbistatin or 5 μM PF573228 were collected after 2 hours and stored at −80° C. prior to sample processing. ATAC-seq was performed as described previously^47. In brief, frozen cells were thawed and washed once with PBS and then resuspended in 500 μL of cold PBS. The cell number was assessed by Cellometer Auto 2000 (Nexcelom Bioscience, Massachusetts, USA). 100,000 cells were then added to ATAC lysis buffer and centrifuged at 500 g in a pre-chilled centrifuge for 5 minutes. Supernatant was removed and the nuclei were resuspended in 50 μL of tagmentation reaction mix by pipetting up and down. The reactions were incubated at 37° C. for 30 minutes in a thermomixer with shaking at 1,000 r.p.m., and then cleaned up using the MiniElute reaction clean up kit (Qiagen). Tagmented DNA was amplified with barcoded primers. Library quality and quantity were assessed with Qubit 2.0 DNA HS Assay (ThermoFisher), Tapestation High Sensitivity D1000 Assay (Agilent Technologies), and QuantStudio® 5 System (Applied Biosystems). Equimolar pooling of libraries was performed based on QC values and sequenced on an Illumina® NovaSeq (Illumina, California, USA) with a read length configuration of 150 PE for [100]M PE reads (50M in each direction) per sample.
FASTQ files were trimmed with Trim Galore and cutadapt^48. Pair-ended reads were then aligned to the mouse reference genome (mm10) with Bowtie2^49. Mitochondrial reads and PCR duplicates were removed using SAMtools^50 and Picard (http://broadinstitute.github.io/picard/), respectively. Peaks were called over input using MACS3^51, and only peaks outside the ENCODE blacklist region were kept. All peaks from all samples were merged and featureCount^52 was used to count the mapped reads for each sample.

[4] = test system: Ascl1-transduced fibroblasts; experiment: Single-factor (Ascl1-only) iN reprogramming; conditions: 10 μM, relative to control
Method: as §1, with “For cytoskeletal and cell adhesion disruptions, Blebbistatin (Millipore), Y-27632 (20 μM; Cayman Chemical), Nocodazole (0.3 μM; Sigma), Cytochalasin D (1 μM; Sigma), Jasplakinolide (0.05 μM; Cayman Chemical) and PF573228 (Sigma) were administered in N3 medium on day 1 and for the first 7 days of reprogramming (unless stated otherwise) and used at the indicated concentrations. Culture medium was replenished every 2 days during reprogramming to maintain the activity of the small molecules.” left out
The reprogramming efficiency was determined by as the percentage of TUBB3^+ iN cells in each condition normalized to the number of cells plated at 24 hours post-seeding. […]

- HDAC activity [2]: differences
Structure (SMILES): CS(=O)(=O)c1cccc(CNc2nc(Nc3ccc4c(c3)CCC(=O)N4)ncc2C(F)(F)F)c1 [PF573228]
- dose response of reprogramming efficiency [1]: significantly increased the reprogramming efficiency in a biphasic manner; also recorded: promoted iN reprogramming in a biphasic manner
- chromatin accessibility of mesenchymal genes [3]: slightly decrease the accessibility of mesenchymal genes
- chromatin accessibility of neuronal genes (Ascl1, Brn2, Myt1l, Tubb3) [3]: could increase the accessibility at the promoter or enhancer regions of neuronal genes

- HDAC activity [2]: reducing
Structure (SMILES): Cc1ccc2c(c1)C(=O)C1(O)CCN(c3ccccc3)C1=N2 (centres unmarked) [blebbistatin]
- concentration generating the highest number of iN cells [1]: 10 µM
- time course of TUBB3+ iN cell generation ([1]; as early as day 5): led to more efficient generation of TUBB3^+ iN cells than the control
- phase of reprogramming in which treatment is effective ([1]; early days 1-5, mid days 5-9, late days 9-13, 10 μM): most crucial during the early phase of reprogramming
- reprogramming efficiency in Tau-EGFP fibroblasts ([1]; mouse fibroblasts isolated from Tau-EGFP mice): enhanced reprogramming efficiency by blebbistatin was also confirmed
- length of treatment sufficient to enhance reprogramming efficiency ([1]; treatment over timescales of 1 to 14 days): 3 days
- dose response of reprogramming efficiency [1]: biphasic dose response
- iN cell generation from Ascl1-transduced fibroblasts [4]: could generate significantly more iN cells from Ascl1-transduced fibroblasts relative to control
- chromatin accessibility of mesenchymal genes [3]: slightly decreased the accessibility at the promoters or enhancer regions of some mesenchymal genes
- chromatin accessibility of neuronal genes (Ascl1, Brn2, Myt1l, Tubb3) [3]: could increase the accessibility at the promoter or enhancer regions of neuronal genes
